According to US5589335A, “Hybridization promotion reagents” (Amoco Corporation, priority 1994, dated 1996):
Where a name gives a salt, the structure may show the parent alone.

Columns and labels:
Proteinase K = Proteinase K (Parengyodontium album, UniProt P06873); assay: Proteinase K activity (digestion of 14C-labeled BSA); format: biochemical
Method: Prior to empirical determination, it could not be predicted whether addition of the GuSCN to TMA.TFA would produce a reagent with the capability of controlling nucleases. The extent of Proteinase K activity in GT^3 was assayed by determining its ability to digest (solubilize) ^14 C-labeled bovine serum albumin (BSA).
These experiments were done twice, and the percentages below are the averages of the two experiments; the numbers in parentheses are the experimental variations.

RNase A = molecular target: T1, RNase A (Bos taurus, UniProt P61823); assay: RNase A inhibition (capturable rRNA target complex); format: biochemical; settings: for % RNase inhibition: 37° C., 15 minutes; for RNase inactivated: RNase 0.125 μg/ml, 15 min
T1 sequence (P61823 27-150): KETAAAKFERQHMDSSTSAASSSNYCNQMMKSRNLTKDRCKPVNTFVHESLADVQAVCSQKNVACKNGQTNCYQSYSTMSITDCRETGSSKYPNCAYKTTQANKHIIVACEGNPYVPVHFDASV
Method: Though the ability of a hybridization medium to support protease activity is desirable, an equally (or more) important property is the capability of inhibiting nucleases, especially ribonucleases. […] The experimental protocol was a follows:
1) A target complex was prepared by hybridizing target rRNA (from Salmonella extracts), capture probe (dA-676), and ^32 P-labeled 3'-Riboprobe (as earlier described).
2) The target complex was diluted into each of the above four test reagents.
3) RNase A solutions of various concentrations (0-250 μg/ml in […] phosphate buffer pH7) were prepared. Into tubes of the diluted target complex was added RNase A, to one of the final concentrations noted in Table 3 below. The control comprised only phosphate buffer diluent. The mixtures were incubated at 37° C. for 15 minutes. Proteinase K was added to a final concentration of 1.25 mg/ml to stop the nuclease activity.
4) Tailed probes and hybridized complexes were captured on magnetic beads (as previously described), which were washed and counted. The level of RNase inhibition was calculated as follows. [formula]

Reagent stability = format: physicochemical
Method: TMA.TFA was prepared by combining equimolar amounts of concentrated Trifluoroacetic acid (Sigma Chemical Co. or Pierce Chemical Co.) and TMA.OH (Sigma Chemical Co. or Southwestern Analytical Chemicals, Inc.) and buffering it with 0.1M phosphate, 0.1M borate, 0.05 mM EDTA (phosphoric acid, boric acid, and EDTA (free acid), neutralized with TMA.OH). Buffered TMA.TFA remained at a constant pH for at least 1 year and its refractive index indicated a loss of only 2-3% of the solutes over the same period.
TMA.TCA is ideally prepared by neutralizing highly concentrated TCA (~9.3M, or ~1.5 g/ml) with TMA.OH. […] This is ideally avoided since the efficiency of hybridization falls as the pH becomes less neutral. […] From the mass, volume and concentration of starting materials, and the volume of the final solution, the nominal concentration of the final product was calculated to be about 3M.

Chain of Proteinase K (P06873 106-384): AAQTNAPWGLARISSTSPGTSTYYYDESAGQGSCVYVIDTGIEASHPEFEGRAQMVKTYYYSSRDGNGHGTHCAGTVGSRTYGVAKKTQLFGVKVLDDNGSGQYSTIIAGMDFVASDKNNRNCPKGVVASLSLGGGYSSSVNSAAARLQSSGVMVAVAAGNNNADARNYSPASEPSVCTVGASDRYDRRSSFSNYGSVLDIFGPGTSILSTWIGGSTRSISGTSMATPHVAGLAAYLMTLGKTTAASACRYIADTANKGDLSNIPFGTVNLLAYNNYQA

Compound: N=C(N)N [GuSCN, Guanidinium thiocyanate]
- % BSA solubilized (Proteinase K; Proteinase K in reagent): 41% (+/-10%)
- half-life of Proteinase K activity (Proteinase K; incubation at 37° C. in reagent): less than an hour
- % RNase inhibition (RNase A; RNase A 0.00 ug/ml): 100%
- % RNase inhibition (RNase A; RNase A 0.13 ug/ml): 100%
- % RNase inhibition (RNase A; RNase A 1.25 ug/ml): 100%
- % RNase inhibition (RNase A; RNase A 4.17 ug/ml): 100%
- % RNase inhibition (RNase A; RNase A 12.50 ug/ml): 100%

Compound: C[N+](C)(C)C [TMA.TFA, Tetramethyammonium:Trifluoroacetate]
- RNase A inhibition (RNase A): relatively ineffective in inactivating RNase
- RNase inactivated (RNase A; with Proteinase K 2.5 mg/ml): 92%
- RNase inactivated (RNase A; without the protease): 73%
- time at constant pH (Reagent stability; buffered solution): at least 1 year

Compound: C[N+](C)(C)C [TMA.TCA, Tetramethyammonium:Trichloroacetate]
- Proteinase K activity in reagent (Proteinase K): advantageously active
- pH stability (Reagent stability; buffered with phosphate (0.1M) and borate (0.1M)): at least one month
